Tests used:
Type in all cases: cell-based
[1] = system: primary cells from kidney tissues of human ADPKD patients; test: Inhibition of three-dimensional cyst formation using primary cells from kidney tissue of human ADPKD patient; details: 168 h, test compound 30 μM, forskolin + ITS stimulation, 7 days 3D culture, average N=3, read-out: Inhibition rate (%) of cyst formation
Experimental: Primary cells were isolated from kidney tissues of human ADPKD patients. Under two-dimensions, the isolated cells were cultured for 2 days using DMEM/F-12 (Thermo Fisher Scientific, Inc.) supplemented with 10% FBS. Subsequently, three-dimensional culture was performed for 7 days using 3D Ready Atelocollagen (KOKEN CO., LTD.). During three-dimensional culture, 50 µM forskolin (Sigma-Aldrich Co. LLC) and ITS liquid media supplements (Sigma-Aldrich Co. LLC) were added as stimulating agents to some of the wells to form cysts, and a test compound was added at the final concentration of 30 μM. The test compound was also added to other wells at the final concentration of 30 μM. After 7 days of three-dimensional culture, it was fixed with 4% paraformaldehyde (Thermo Fisher Scientific, Inc.), and nucleic acid staining and cell membrane staining were performed with Hoechst 33342 (Thermo Fisher Scientific, Inc.) and CellLight Plasma Membrane-RFP, BacMam 2.0 (Thermo Fisher Scientific, Inc.). Three-dimensional imaging and volume analysis were performed using Operetta CLS and image analysis software Harmony (PerkinElmer Japan G.K.). The inhibition rate was determined by the following formula.

human NaPi-IIb = target: T1, human NaPi-IIb (Homo sapiens, UniProt O95436); test: 33PO4 uptake inhibition in CHO cells expressing human NaPi-IIb; details: CHO cells transiently expressing human NaPi-IIb, pH 6.5
T1 construct: expressed in transfected cells; host or cells: CHO cells, transient transfection with Fugene HD
T1 sequence (O95436 1-690): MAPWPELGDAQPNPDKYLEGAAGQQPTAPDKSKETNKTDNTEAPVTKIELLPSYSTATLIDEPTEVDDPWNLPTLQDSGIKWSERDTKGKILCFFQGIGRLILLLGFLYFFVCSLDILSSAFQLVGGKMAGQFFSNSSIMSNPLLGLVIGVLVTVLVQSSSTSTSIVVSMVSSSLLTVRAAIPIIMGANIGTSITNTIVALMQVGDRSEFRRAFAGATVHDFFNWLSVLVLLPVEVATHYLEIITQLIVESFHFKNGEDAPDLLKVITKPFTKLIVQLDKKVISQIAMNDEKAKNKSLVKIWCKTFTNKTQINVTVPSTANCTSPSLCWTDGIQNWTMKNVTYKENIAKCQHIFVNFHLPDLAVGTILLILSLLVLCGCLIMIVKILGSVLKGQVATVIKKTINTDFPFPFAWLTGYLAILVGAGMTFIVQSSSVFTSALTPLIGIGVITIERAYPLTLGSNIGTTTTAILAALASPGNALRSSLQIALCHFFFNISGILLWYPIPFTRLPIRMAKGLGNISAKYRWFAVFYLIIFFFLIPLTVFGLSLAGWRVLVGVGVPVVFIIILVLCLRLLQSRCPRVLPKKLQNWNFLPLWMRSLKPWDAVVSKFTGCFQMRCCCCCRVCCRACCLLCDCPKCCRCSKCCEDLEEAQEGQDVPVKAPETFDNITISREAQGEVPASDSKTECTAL
Experimental: For transient expression, human NaPi-IIb expression plasmids, human PiT1 expression plasmids, human PiT2 expression plasmids, and Fugene HD Transfection (Promega Corporation) were added to CHO cells using a 96-well plate, and the plate was incubated in a C02 incubator for 16 hours. The medium was replaced with buffer A (145 mM choline chloride, 3 mM KCl, 1 mM CaCl2), 0.5 mM MgCl2, 5 mM glucose, 5 mM MES, (pH 6.5)), and then replaced with buffer B (145 mM NaCl, 3 mM KCl, 1 mM CaCl2, 0.5 mM MgCl2, 5 mM glucose, 5 mM MES (pH 6.5)) to which a test compound was added at the final concentration of 0.01, 0.03, 0.1, 0.3, 1, 3, 10, or 30 μM, buffer A to which DMSO was added, or buffer B to which DMSO was added. After a certain time, a 1/20 amount of buffer A containing ^33PO4 (PerkinElmer Japan G. K.) was added and reacted at room temperature. After washing with ice-cooled buffer A, a liquid scintillator (MicroScint™-20, item number 6013621, PerkinElmer Japan G.K.) was added, and the ^33PO4 uptake amount was measured with the top count (Top Count NXT, PerkinElmer Japan G.K.). The inhibition rate was determined by the following formula. Here, a certain time was set to 10 minutes. The phrase “a 1/20 amount of buffer A containing ^33PO4 (PerkinElmer Japan G.K.) was added” refers to “buffer A containing ^33PO4 (PerkinElmer Japan G.K.) was added in an amount of 1/20 of the amount of solution filling the medium”.
The 50% ^33PO4-uptake inhibition concentrations (ICs) (UM) in a cell expressing human NaPi-Ilb, human PiT1, and human PiT2 were calculated from a straight line through two points sandwiching 50% inhibition rate. It should be noted that compounds 1 and 2 were not measured for baman PiT1 and human PiT2, which was indicated as “-” in Table 1.

human PiT2 = target: T2, human PiT2 (Homo sapiens, UniProt Q08357); test: 33PO4 uptake inhibition in CHO cells expressing human PiT2; details: CHO cells transiently expressing human PiT2, pH 6.5
T2 construct: expressed in transfected cells; host or cells: CHO cells, transient transfection with Fugene HD
T2 sequence (Q08357 1-652): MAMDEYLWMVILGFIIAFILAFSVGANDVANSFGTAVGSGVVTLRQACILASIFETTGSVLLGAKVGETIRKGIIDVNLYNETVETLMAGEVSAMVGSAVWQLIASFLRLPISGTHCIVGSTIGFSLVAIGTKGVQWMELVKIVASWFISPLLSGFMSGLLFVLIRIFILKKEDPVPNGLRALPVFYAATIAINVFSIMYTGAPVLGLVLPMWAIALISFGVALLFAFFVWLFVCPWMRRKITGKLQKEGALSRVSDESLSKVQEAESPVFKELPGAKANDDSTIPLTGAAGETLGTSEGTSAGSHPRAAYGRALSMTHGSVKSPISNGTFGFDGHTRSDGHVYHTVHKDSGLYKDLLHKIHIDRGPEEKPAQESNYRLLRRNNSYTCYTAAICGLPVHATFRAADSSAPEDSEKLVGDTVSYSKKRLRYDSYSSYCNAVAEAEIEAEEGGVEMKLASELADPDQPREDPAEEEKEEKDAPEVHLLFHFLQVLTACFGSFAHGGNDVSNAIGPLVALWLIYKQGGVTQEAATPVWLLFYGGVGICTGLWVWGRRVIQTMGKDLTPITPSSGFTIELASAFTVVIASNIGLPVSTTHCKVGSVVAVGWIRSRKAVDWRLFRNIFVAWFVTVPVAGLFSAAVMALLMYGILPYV
Experimental: (§1) For transient expression, human NaPi-IIb expression plasmids, human PiT1 expression plasmids, human PiT2 expression plasmids, and Fugene HD Transfection (Promega Corporation) were added to CHO cells using a 96-well plate, and the plate was incubated in a C02 incubator for 16 hours. The medium was replaced with buffer A (145 mM choline chloride, 3 mM KCl, 1 mM CaCl2), 0.5 mM MgCl2, 5 mM glucose, 5 mM MES, (pH 6.5)), and then replaced with buffer B (145 mM NaCl, 3 mM KCl, 1 mM CaCl2, 0.5 mM MgCl2, 5 mM glucose, 5 mM MES (pH 6.5)) to which a test compound was added at the final concentration of 0.01, 0.03, 0.1, 0.3, 1, 3, 10, or 30 μM, buffer A to which DMSO was added, or buffer B to which DMSO was added. After a certain time, a 1/20 amount of buffer A containing ^33PO4 (PerkinElmer Japan G. K.) was added and reacted at room temperature. After washing with ice-cooled buffer A, a liquid scintillator (MicroScint™-20, item number 6013621, PerkinElmer Japan G.K.) was added, and the ^33PO4 uptake amount was measured with the top count (Top Count NXT, PerkinElmer Japan G.K.). The inhibition rate was determined by the following formula. Here, a certain time was set to 10 minutes. […]

human PiT1 = target: T3, human PiT1 (Homo sapiens, UniProt Q8WUM9); test: 33PO4 uptake inhibition in CHO cells expressing human PiT1; details: CHO cells transiently expressing human PiT1, pH 6.5
T3 construct: expressed in transfected cells; host or cells: CHO cells, transient transfection with Fugene HD
T3 sequence (Q8WUM9 1-679): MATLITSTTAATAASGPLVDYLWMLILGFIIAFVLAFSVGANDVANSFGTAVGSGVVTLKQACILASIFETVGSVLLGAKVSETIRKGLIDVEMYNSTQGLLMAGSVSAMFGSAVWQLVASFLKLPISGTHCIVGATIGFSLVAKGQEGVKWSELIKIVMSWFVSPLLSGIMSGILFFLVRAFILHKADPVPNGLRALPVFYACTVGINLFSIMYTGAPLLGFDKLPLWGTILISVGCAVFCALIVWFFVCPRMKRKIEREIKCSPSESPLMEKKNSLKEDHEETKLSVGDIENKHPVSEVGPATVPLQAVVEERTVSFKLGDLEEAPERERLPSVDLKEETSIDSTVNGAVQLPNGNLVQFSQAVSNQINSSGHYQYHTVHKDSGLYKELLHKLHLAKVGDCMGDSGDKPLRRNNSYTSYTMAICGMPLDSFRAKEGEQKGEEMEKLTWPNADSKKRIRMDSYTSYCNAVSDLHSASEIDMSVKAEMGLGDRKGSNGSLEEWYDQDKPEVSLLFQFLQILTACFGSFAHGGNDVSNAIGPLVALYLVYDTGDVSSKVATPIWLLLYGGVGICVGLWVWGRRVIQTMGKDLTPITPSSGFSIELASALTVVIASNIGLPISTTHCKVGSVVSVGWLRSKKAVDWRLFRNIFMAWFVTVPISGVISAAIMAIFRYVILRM
Experimental: as §1

IC50 (human NaPi-IIb) [µM]	IC50 (human PiT2) [µM]	IC50 (human PiT1) [µM]	Compound	inhibition at 30 µM [1] [%]
2.9	–	–	C[C@]12CCCN1N(Cc1cccc(Cl)c1F)C(=O)C(C(=O)Nc1cc(F)c(Br)c(F)c1)=C2O [Compound 2, (4aR)-N-(4-Bromo-3,5-difluorophenyl)-1-[(3-chloro-2-fluorophenyl)methyl]-4-hydroxy-4a-methyl-2-oxo-6,7-dihydro-5H-pyrrolo[1,2-b]pyridazine-3-carboxamide]	100
7.9	–	–	O=c1[nH]nc(Sc2ccc(C(F)(F)F)cn2)n1-c1cc(Cl)c(Cl)cc1C(F)(F)F [Compound 1, 4-[4,5-Dichloro-2-(trifluoromethyl)phenyl]-3-[5-(trifluoromethyl)pyridin-2-yl]sulfanyl-1H-1,2,4-triazol-5-one]	98.2
3.8	> 30	> 30	O=C(Nc1ccc(Cl)cc1C(=O)c1cnn(-c2ccc(Cl)c(C(F)(F)F)c2)c1)c1cccc(CN2CCC(N3CCCCC3)CC2)c1 [Compound 3, N-[4-Chloro-2-[1-[4-chloro-3-(trifluoromethyl)phenyl]pyra-zole-4-carbonyl]phenyl]-3-[(4-piperidin-1-ylpiperidin-1-yl)methyl]benzamide]	100
